Test results from US20160257697A1, “THIOPHENE-SUBSTITUTED TETRACYCLIC COMPOUNDS AND METHODS OFUSE THEREOF FOR THE TREATMENT OF VIRAL DISEASES” (priority 2013, published 2016).
Like-named read-outs stand apart in the source and are kept apart here.

Tests used:
Experiment in all cases: microbe, parasite or virus in culture
Format in all cases: cell-based, Hepatitis C virus (HCV)
HCV replicon 2B = conditions: Replicon Assay A
Procedure, shortened: (§1)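 Read-out is replicon RNA per cell by real-time RT-PCR, normalised to cyclophilin mRNA amplified in the same well. Cells were exposed to compound for 3 days at 2000 cells/well in medium with 5% fetal bovine serum and 0.5% DMSO.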

HCV replicon 1AY93H = conditions: Replicon Assay A
Procedure, shortened: as §1

HCV replicon 1A = conditions: Replicon Assay A
Procedure, shortened: as §1

HCV replicon 1B = conditions: Replicon Assay B
HCV replicon 1AQ30D = conditions: Replicon Assay B
[1] = read-out: 1A Y93H IC50, replicon 1AY93H
[2] = read-out: 1A Q30D IC50, replicon 1AQ30D
[3] = Hepatitis C virus, read-out: 1A Q30D IC50 (nM), replicon 1AQ30D
[4] = read-out: 2B IC50, HCV replicon 2B
[5] = read-out: 1A Y93H IC50, HCV replicon 1A Y93H
[6] = Hepatitis C virus, HCV replicon 1A
[7] = Hepatitis C virus, HCV replicon 1B
[8] = Hepatitis C virus, read-out: 1A Q30D IC50, HCV replicon 1A Q30D

Row | SMILES | IC50 (HCV replicon 2B; read-out: 2B IC50, replicon 2B) [nM] | IC50 (HCV replicon 1AY93H; [1]) [nM] | IC50 (HCV replicon 1A; Hepatitis C virus, replicon 1A) [nM] | IC50 (HCV replicon 1B; Hepatitis C virus, replicon 1B) [nM] | IC50 (HCV replicon 1AQ30D; [2]) [nM] | IC50 (HCV replicon 1AQ30D; [3]) [nM] | IC50 (HCV replicon 2B; [4]) [nM] | IC50 (HCV replicon 1AY93H; [5]) [nM] | further results
1 | COC(=O)N[C@H](C(=O)N1CCC[C@H]1c1ncc(-c2ccc3c(c2)cc2n3C(c3ccc(C4CC4)s3)Oc3cc(-c4cnc([C@@H]5CCCN5C(=O)[C@@H](NC(=O)OC)C5CCOCC5)[nH]4)cc(C)c3-2)[nH]1)C(C)C (single isomer, unassigned) [Compound 122] | 0.003 | 0.007 | 0.002 | 0.0023 | 0.029 |  |  |  | 
2 | COC(=O)N[C@H](C(=O)N1CCC[C@H]1c1ncc(-c2cc(F)c3c(c2)OC(c2ccc(CC(C)(C)OC)s2)n2c-3cc3cc(-c4cnc([C@@H]5CCCN5C(=O)[C@@H](NC(=O)OC)C(C)C)[nH]4)ccc32)[nH]1)C(C)C (single isomer, unassigned) [Compound 844] |  |  |  |  |  |  |  |  | IC50 (HCV replicon 2B; HCV replicon 2B, read-out: 2B IC50): 0.213 nM; IC50 (HCV replicon 1AY93H; HCV replicon 1A Y93H, read-out: 1A Y93H IC50): 0.023 nM; IC50 (HCV replicon 1A; HCV replicon 1A): 0.0022 nM; IC50 (HCV replicon 1B; HCV replicon 1B): 0.0026 nM; IC50 (HCV replicon 1AQ30D; HCV replicon 1A Q30D, read-out: 1A Q30D IC50): 0.239 nM
3 | COC(=O)NC(C(=O)N1CCC[C@H]1c1ncc(-c2ccc3c(c2)cc2n3C(c3ccc(C4CC4)s3)Oc3cc(-c4cnc([C@@H]5CCCN5C(=O)[C@@H](NC(=O)OC)C(C)C)[nH]4)cc(F)c3-2)[nH]1)C1CN(C(=O)OC)C1 (single isomer, unassigned) [Compound 226] | 0.025 | 0.009 | 0.0026 | 0.0036 |  | 0.13 |  |  | 
4 | COC(=O)N[C@H](C(=O)N1CCC[C@H]1c1ncc(-c2cc(F)c3c(c2)OC(c2cc4c(s2)CCC(C)(C)O4)n2c-3cc3cc(-c4cnc([C@@H]5CCCN5C(=O)[C@@H](NC(=O)OC)C(C)C)[nH]4)ccc32)[nH]1)C(C)C (single isomer, unassigned) [Compound 397] | 0.0164 | 0.004 | 0.003 | 0.003 |  | 0.0765 |  |  | 
5 | COC(=O)NC(C(=O)N1CCC[C@H]1c1ncc(-c2ccc3c(c2)cc2n3C(c3cc4ccccc4s3)Oc3cc(-c4cnc([C@@H]5CCCN5C(=O)[C@@H](NC(=O)OC)C(C)C)[nH]4)cc(F)c3-2)[nH]1)C1C[C@@H](C)O[C@@H](C)C1 (single isomer, unassigned) [Compound 640] |  |  |  |  |  |  | 0.0253 | 0.0106 | IC50 (HCV replicon 1A; [6]): 0.0019 nM; IC50 (HCV replicon 1B; [7]): 0.0011 nM; IC50 (HCV replicon 1AQ30D; [8]): 0.271 nM
6 | COC(=O)N[C@H](C(=O)N1CCC[C@H]1c1ncc(-c2cc(C)c3c(c2)OC(c2ccc(C4CC4)s2)n2c-3cc3cc(-c4cnc([C@@H]5C[C@H]6C[C@H]6N5C(=O)[C@@H](NC(=O)OC)C(C)C)[nH]4)ccc32)[nH]1)C(C)C (single isomer, unassigned) [Compound 756] |  |  |  |  |  |  | 0.6 | 0.64 | IC50 (HCV replicon 1A; HCV replicon 1A): 0.0036 nM; IC50 (HCV replicon 1B; HCV replicon 1B): 0.0022 nM; IC50 (HCV replicon 1AQ30D; read-out: 1A Q30D IC50, HCV replicon 1A Q30D): 10.2 nM
7 | CCc1ccc(C2Oc3cc(-c4cnc([C@@H]5CCCN5C(=O)C(NC(=O)OC)C5CCOC(C)(C)C5)[nH]4)cc(F)c3-c3cc4cc(-c5cnc([C@@H]6CCCN6C(=O)[C@@H](NC(=O)OC)C(C)C)[nH]5)ccc4n32)s1 (single isomer, unassigned) [Compound 163] | 0.063 | 0.058 |  |  | 0.17 |  |  |  | IC50 (HCV replicon 1A; replicon 1A): 0.0184 nM; IC50 (HCV replicon 1B; replicon 1B): 0.0313 nM
8 | COC(=O)NC(C(=O)N1CCC[C@H]1c1ncc(-c2ccc3c(c2)cc2n3C(c3ccc(C4CC4)s3)Oc3cc(-c4cnc([C@@H]5CCCN5C(=O)[C@@H](NC(=O)OC)C(C)C)[nH]4)cc(F)c3-2)[nH]1)C1CCCCO1 (single isomer, unassigned) [Compound 343] | 0.829 | 0.37 |  |  | 0.704 |  |  |  | IC50 (HCV replicon 1A; replicon 1A): 0.001 nM; IC50 (HCV replicon 1B; replicon 1B): 0.0023 nM
9 | COC(=O)N[C@H](C(=O)N1CCC[C@H]1c1ncc(-c2cc(F)c3c(c2)OC(c2ccc(C(F)(F)F)s2)n2c-3cc3cc(-c4cnc([C@@H]5CCCN5C(=O)[C@@H](NC(=O)OC)C5CCOCC5)[nH]4)ccc32)[nH]1)C(C)C (single isomer, unassigned) [Compound 654] |  |  |  |  |  |  | 0.0061 | 0.0095 | IC50 (HCV replicon 1A; [6]): 0.0011 nM; IC50 (HCV replicon 1B; [7]): 0.002 nM; IC50 (HCV replicon 1AQ30D; [8]): 0.0839 nM
10 | COC(=O)NC(C(=O)N1[C@@H]2C[C@@H]2C[C@H]1c1ncc(-c2ccc3c(c2)cc2n3C(c3ccc(C4CC4)s3)Oc3cc(-c4cnc([C@@H]5CCCN5C(=O)[C@@H](NC(=O)OC)C(C)C)[nH]4)cc(F)c3-2)[nH]1)C(C)(C)F (some centres unmarked) [Compound 93] |  |  | 0.003 | 0.0025 |  | 0.053 |  |  | IC50 (HCV replicon 2B; Hepatitis C virus, read-out: 2B IC50 (nM), replicon 2B): 0.054 nM; IC50 (HCV replicon 1AY93H; Hepatitis C virus, read-out: 1A Y93H IC50 (nM), replicon 1AY93H): 0.007 nM
